Holding throughout (assay type): cell-based
In data set [1] the test system is Staphylococcus aureus MSSA (Newman). Put plainly: broth microdilution MIC assay, Staphylococcus aureus MSSA (Newman). To be noted: for MIC: Staphylococcus aureus; for Antibacterial activity Staphylococcus aureus (MSSA): MIC100 class score, broth microdilution. On the technique in general: Dilution methods test growth across graded concentrations, often in twofold steps.

Data set [2] relates to penicillin-, erythromycin- and tetracycline-resistant Streptococcus pneumoniae (ATCC 700677), ARSP. Put plainly: microbe, parasite or virus in culture. To be noted: ATCC700677, MIC activity class, read-out: Antibacterial activity ARSP (multi-drug resistant-SP).
For data set [3], the system named is Bacillus subtilis (Marburg strain, ATCC6051). Put plainly: microbe, parasite or virus in culture. To be noted: ATCC6051, read-out: Antibacterial activity BS (Bacillus substilis).
Data set [4] relates to Human hepatocytes (HepaRG cells). The experiment in a line: human cytotoxicity assay in vitro (CellTiter-Glo), hepatocytes. To be noted: cytotoxicity class. On the technique in general: In ATP-based viability assays light output follows the ATP content of the culture.
In data set [5] the test system is Streptococcus pneumoniae (Chester, ATCC49619). The experiment in a line: broth microdilution MIC assay, Streptococcus pneumoniae. To be noted: MIC100 class score, 24 h.
Data set [6] has as its system Staphylococcus aureus MRSA (COL). Put plainly: broth microdilution MIC assay, Staphylococcus aureus MRSA (COL). To be noted: for MIC: Staphylococcus aureus, MRSA.
The test system of data set [7] is Staphylococcus epidermidis (PCI 1200, ATCC12228). The experiment in a line: broth microdilution MIC assay, Staphylococcus epidermidis. To be noted: ATCC12228, read-out: Antibacterial activity SE (Staphylococcus epidermidis).
Setting [8] is: 24 h, read-out: Antibacterial activity Staphylococcus aureus (MSSA).
Setting [9] is: read-out: Antibacterial activity MSSA (Staphylococcus aureus MSSA).
The mark [10] stands for this setting: read-out: Antibacterial activity MRSA (Staphylococcus aureus MRSA).
Setting [11] is: 24 h, read-out: Antibacterial activity Staphylococcus aureus (MRSA).

Molecules are shown by their SMILES. Values after ≈ are worked out from the molar mass of the structure shown. Where two headings read alike, the source gives them in different places.

For the compound `Cc1[nH]c(-c2ccc(-c3cccc(Cl)c3Cl)o2)nc1-c1ccccc1` [Compound 2], the MIC in data set [1] (setting [8]) is 20 to 50 mg/L (≈ 54.2 to 135 µM); in data set [1] (setting [9]), 20 to 50 mg/L (≈ 54.2 to 135 µM); in data set [2] it was 2 to 5 mg/L (≈ 5.42 to 13.5 µM); in data set [3] it was 20 to 50 mg/L (≈ 54.2 to 135 µM). Besides, the “cytotoxicity cell line H (hepatocytes)” value in data set [4] stood at 2.
`Cc1nc(-c2ccc(-c3ccc(Cl)cc3Cl)o2)[nH]c1-c1ccc(F)cc1` [Compound 16]: in data set [5], the “Antibacterial activity Streptococcus pneumoniae” value is on record as 3 (MIC100 of 2-5 μg/ml). Also, the MIC is 1 to 3 mg/L (≈ 2.58 to 7.75 µM) in data set [1] (setting [9]); 1 to 3 mg/L (≈ 2.58 to 7.75 µM) in data set [6] (setting [10]); under 1 mg/L in data set [2]; 3 to 10 mg/L (≈ 7.75 to 25.8 µM) in data set [7]; 3 to 10 mg/L (≈ 7.75 to 25.8 µM) in data set [3]. Besides, in data set [4], the “cytotoxicity cell line H (hepatocytes)” value was 3.
In the case of `Cc1[nH]c(-c2ccc(-c3ccccc3C(F)(F)F)o2)nc1-c1ccccc1` [Compound 17], the MIC in data set [1] (setting [8]) lay within 3 to 10 mg/L (≈ 8.14 to 27.1 µM); in data set [1] (setting [9]) it was 3 to 10 mg/L (≈ 8.14 to 27.1 µM); in data set [6] (setting [11]), 1 to 3 mg/L (≈ 2.71 to 8.14 µM); in data set [6] (setting [10]) it was 1 to 3 mg/L (≈ 2.71 to 8.14 µM); in data set [7] it was 20 to 50 mg/L (≈ 54.3 to 136 µM); in data set [3], 1 to 3 mg/L (≈ 2.71 to 8.14 µM). Besides, in data set [4], the “cytotoxicity cell line H (hepatocytes)” value was 3.
`Cc1[nH]c(-c2ccc(-c3ccccc3OC(F)(F)F)o2)nc1-c1ccccc1` [Compound 18]: the MIC was 1 to 3 mg/L (≈ 2.6 to 7.81 µM) in data set [1] (setting [8]); 1 to 3 mg/L (≈ 2.6 to 7.81 µM) in data set [1] (setting [9]); 3 to 10 mg/L (≈ 7.81 to 26 µM) in data set [6] (setting [11]); 3 to 10 mg/L (≈ 7.81 to 26 µM) in data set [6] (setting [10]); under 1 mg/L in data set [2]; 3 to 10 mg/L (≈ 7.81 to 26 µM) in data set [7]. Moreover, in data set [3], the MIC lay in the range of 1 to 3 mg/L (≈ 2.6 to 7.81 µM). Moreover, the “cytotoxicity cell line H (hepatocytes)” value in data set [4] is listed as 2.
As for `Cc1nc(-c2ccc(-c3ccccc3C(F)(F)F)o2)[nH]c1-c1ccccc1Cl` [Compound 20], the MIC in data set [1] (setting [9]) lay within 20 to 50 mg/L (≈ 49.7 to 124 µM); in data set [2] it was 2 to 5 mg/L (≈ 4.97 to 12.4 µM); in data set [3] it was 20 to 50 mg/L (≈ 49.7 to 124 µM). Moreover, the “cytotoxicity cell line H (hepatocytes)” value in data set [4] came to 3.
As to `Cc1nc(-c2ccc(-c3ccccc3OC(F)(F)F)o2)[nH]c1-c1cccc(Cl)c1` [Compound 21], in data set [1] (24 h), the “Antibacterial activity Staphylococcus aureus (MSSA)” value was 3 (MIC100 of 3-10 μg/ml). Also, the MIC in data set [1] (setting [9]) was 1 to 3 mg/L (≈ 2.39 to 7.16 µM); in data set [2], under 1 mg/L; in data set [7] it was 20 to 50 mg/L (≈ 47.8 to 119 µM); in data set [3], 3 to 10 mg/L (≈ 7.16 to 23.9 µM). The “Antibacterial activity Staphylococcus aureus (MRSA)” value in data set [6] (MIC100 class score, broth microdilution, 24 h) is 3 (MIC100 of 3-10 μg/ml). In data set [4], the “cytotoxicity cell line H (hepatocytes)” value is 3.
Turning to `Cc1[nH]c(-c2ccc(-c3ccccc3OC(F)(F)F)o2)nc1-c1ccc(F)cc1` [Compound 23, 4-(4-Fluoro-phenyl)-5-methyl-2-[5-(2-trifluoromethoxy-phenyl)-furan-2-yl]-1H-imidazole], in data set [1] (24 h), the “Antibacterial activity Staphylococcus aureus (MSSA)” value is given as 3 (MIC100 of 3-10 μg/ml). The MIC in data set [1] (setting [9]) was 1 to 3 mg/L (≈ 2.49 to 7.46 µM); in data set [6] (setting [10]), 3 to 10 mg/L (≈ 7.46 to 24.9 µM); in data set [2], under 1 mg/L; in data set [7], 20 to 50 mg/L (≈ 49.7 to 124 µM); in data set [3], 1 to 3 mg/L (≈ 2.49 to 7.46 µM). Moreover, the “cytotoxicity cell line H (hepatocytes)” value in data set [4] is given as 3.
Take `Cc1[nH]c(-c2ccc(-c3ccccc3OC(F)(F)F)o2)nc1-c1ccc(Cl)cc1` [Compound 24]: the “Antibacterial activity Staphylococcus aureus (MSSA)” value in data set [1] (24 h) is recorded as 3 (MIC100 of 3-10 μg/ml). The MIC in data set [1] (setting [9]) was 3 to 10 mg/L (≈ 7.16 to 23.9 µM); in data set [6] (setting [10]), 3 to 10 mg/L (≈ 7.16 to 23.9 µM); in data set [2], under 1 mg/L; in data set [7], 20 to 50 mg/L (≈ 47.8 to 119 µM); in data set [3] it was 3 to 10 mg/L (≈ 7.16 to 23.9 µM). Also, in data set [4], the “cytotoxicity cell line H (hepatocytes)” value was determined as 2.
For `Cc1[nH]c(-c2ccc(-c3ccccc3C(F)(F)F)o2)nc1-c1ccc(Br)cc1` [Compound 25], the “Antibacterial activity Streptococcus pneumoniae” value in data set [5] is 3 (MIC100 of 2-5 μg/ml). The MIC in data set [3] fell in the range of 20 to 50 mg/L (≈ 44.7 to 112 µM).
`CCc1ccc(-c2[nH]c(-c3ccc(-c4ccccc4C(F)(F)F)o3)nc2C)cc1` [Compound 28]: the “Antibacterial activity Streptococcus pneumoniae” value in data set [5] is on record as 3 (MIC100 of 2-5 μg/ml). Further, the values for the MIC in data set [1] (setting [9]), in data set [6] (setting [10]) and in data set [3] were 20 to 50 mg/L (≈ 50.5 to 126 µM), 20 to 50 mg/L (≈ 50.5 to 126 µM) and 1 to 3 mg/L (≈ 2.52 to 7.57 µM), respectively.
Regarding `Cc1[nH]c(-c2ccc(-c3ccccc3OC(F)(F)F)o2)nc1Cc1ccc(Br)cc1` [Compound 30, 4-(4-Bromo-benzyl)-5-methyl-2-[5-(2-trifluoromethoxy-phenyl)-furan-2-yl]-1H-imidazole], in data set [1] (24 h), the “Antibacterial activity Staphylococcus aureus (MSSA)” value was 3 (MIC100 of 3-10 μg/ml). The MIC in data set [1] (setting [9]) is 3 to 10 mg/L (≈ 6.29 to 21 µM); in data set [6] (setting [10]), 3 to 10 mg/L (≈ 6.29 to 21 µM); in data set [2], under 1 mg/L; in data set [7], 11 to 201 mg/L (≈ 23 to 421 µM); in data set [3], 3 to 10 mg/L (≈ 6.29 to 21 µM). Moreover, in data set [4], the “cytotoxicity cell line H (hepatocytes)” value worked out at 3.

These data come from US10322110B2, “Imidazole-based antimicrobial agents” (priority 2014, dated 2019).
